Assay results reported in patent publication US6500819B2, “Bicyclolactam compounds, use thereof and intermediates for preparing thereof” (Taiho Pharmaceutical Company Limited, priority 1994, dated 2002).
Blank lines part the entries; values can stand above or below the compound they belong to.

Tests used:
[1] = system: Wistar rats; assay: Anticonflict test (first part, Test Example 1); assay type: in vivo; conditions: for Frequency of water drinking behavior: 1 h before test, value relative to control = 100; for Anxiolytic effect in the anticonflict test (in words): oral, compounds at doses of 0.001 to 1.0 mg/kg
Description: Wistar rats (males weighing 140 to 160 g) were used for experiment in groups of 11 to 14.
The test compound, diazepam or buspirone was suspended in a 0.5 % sodiumn carboxymethyl cellulose solution, and the suspension was orally given to the animal in a volume of 5 mnl/kg one hour before the start of experiment.
With reference to a method described in “Process in Anxiolytics and Antidepresants,” ediled by Showa Ueki and Tatsuo Furukawa, Ishiyaku Shuppansha, 56-59 (1981) , the agents were tested using experimental boxes having a grid floor and a metal drinking tube in the floor. No water was supplied to the rats for 48 hours before the experiment. Upon lapse of first 24 hours, each group of rats were placed into the experimental box, permitted access to water for 30 seconds and caused to recognize the metal drinking tube. Upon lapse of further 24 hours with access to water prevented, the rats were placed into the box again and permitted access to water on condition that an electric current was passed between the metal drinking tube and the grid to give an electroshock for every 20 times of water drinking behavior to measure the frequency of water drinking behavior for 3 minutes.
The frequency is expessed by a value relative to the frequency of the control which is taken as 100.

[2] = Acute toxicity test (LD50), first part; assay type: in vivo; conditions: mouse, in vivo; oral, male ddY mice, observed for 3 days
[3] = system: ddY mice; assay: Sedative effect (spontaneous locomotor activity), second part; conditions: mouse, in vivo, po, 300 mg/kg
Description: Sedative Effect (Spontaneous locomotor activity)
(§1) Compound 1′a-1, the comparison compound, diazepam or buspirone was suspended in a 0.5% sodium carboxymethyl cellulose solution, and the suspension was orally administered to 3- to 4-week-old male ddY mice (in groups of 5) in a volume of 10 ml/kg one hour before the start of experiment.
The test was conducted with reference to a method described in “Evaluation of Medicinal Efficacies (1), Pharmacological Test Method (I), Basic Lectures on Development of Pharmaceuticals,” 50˜54(1971). More specifically, the group of mice were given the test drug and thereafter measured the amount of spontaneous locomotor activity for 10 minutes per mouse using Animex MK-110 (Muromachi Kikai Co., Ltd.).

[4] = system: ddY mice; assay: Anticonvulsant effect (pentylenetetrazol-induced convulsion method), second part; assay type: in vivo; conditions: oral, dose of 300 mg/kg
Description: Anticonvulsant Effect (Pentylenetetrazol-induced Convulsion Method)
Compound 1′a-1, the comparison compound, diazepam or j buspirone was suspended, in a 0.5% sodium carboxymethyl cellulose solution, and the suspension was orally administered to 3- to 4-week-old maple ddY mice (in groups of 6) in a volume of 10 ml/kg one hour before the start of experiment.
The test was conducted with reference to a method described in “Evaluation of Medicinal Efficacies (1), Pharmacological Test Method (I), Basic Lectures on Development of Pharmaceuticals,” 167˜172(1971).

[5] = system: ddY mice; assay: Effect on central nervous system depressant (ethanol enhancing method), second part; conditions: mouse, in vivo, po, 300 mg/kg
Description: Effect on central nervous system depressant (Ethanol enhancing method)
Compound 1′a-1, the comparison compound, diazepam or buspirone was suspended in a 0.5% sodium carboxymethyl cellulose solution, and the suspension was orally administered to 3- to 4-week-old male ddY mice (in groups of 6) in a volume of 10 ml/kg one hour before the start of experiment.
The test was conducted with reference to a method described in Japan. J. Pharmacol., 49, 337˜349(1989). More specifically, the group of mice were intraperitoneally given 25% ethanol at a dose of 20 ml/kg and checked for the time interval between loss and recovery of the righting reflex.

[6] = system: ddY mice; assay: Muscle relaxant effect (traction method), second part; conditions: mouse, in vivo, po, 300 mg/kg
Description: Muscle Relaxant Effect (Traction Method)
as §1
With reference to a method described in Japan. J. Pharmacol., 49. 337˜349(1989), the foreleg of the mouse was hung on a horizontal wire, having a diameter of 1.2 mm and fixed at a level of 30 cm, three times consecutively. […] Thus, ED5 0 was determined for evaluation. […] Diazepam and buspirone were 2.2 mg/kg and 427.8 mg/kg, respectively, in ED5 0.

[7] = system: ddY mice; assay: Acute toxicity test (number of deaths), second part; assay type: in vivo; conditions: 6 mice, observed for 3 days

SMILES: COc1ccc(C(=O)N2C(=O)CC3CCCCC32)cc1 (stereo not drawn) [Compound 11, 7-(4-methoxybenzoyl)-7-azabicyclo[4.3.0]nonane-8-one]
Frequency of water drinking behavior ([1]; dose 1.0 mg/kg oral): 133% | Anxiolytic effect in the anticonflict test (in words) [1]: increase in the frequency of water drinking behavior | LD50 at 3 days [2]: > 2000 mg/kg

melting point: 109.5 °C
SMILES: COc1ccc(C(=O)N2C(=O)CC[C@@H]3[C@H]2CC[C@H]3OCc2ccccc2)cc1 (racemic) [Compound 4a-1, (1RS, 6RS, 7RS)-7-benzyloxy-2-(4-methoxybenzoyl)-2-azabicyclo[4.3.0]nonan-3-one]

SMILES: COc1ccc(C(=O)N2C(=O)CC[C@H]3[C@H](O)CC[C@H]32)cc1 (racemic) [Compound 1′a-1, (1RS, 6RS, 7RS)-7-hydroxy-2-(4-methoxybenzoyl)-2-azabicyclo-[4.3.0]nonan-3-one]
Sedative effect (in words) [3]: no sedative effect | Anticonvulsant effect (in words) [4]: no anticonvulsant effect | Ethanol enhancing effect (in words) [5]: no ethanol enhancing effect | Muscle relaxant effect (in words) [6]: no muscle relaxant effect | Number of death ([7]; dose 2000 mg/kg oral): 0 | Number of death ([7]; dose 3000 mg/kg oral): 2

SMILES: COc1ccc(C(=O)N2C(=O)CCC3CCCCC32)cc1 (stereo not drawn) [Compound 1, 2-(4-methoxybenzoyl)-2-azabicyclo[4.4.0)decane-3-one]
Frequency of water drinking behavior ([1]; dose 0.01 mg/kg oral): 138% | Frequency of water drinking behavior ([1]; dose 0.1 mg/kg oral): 140% | Frequency of water drinking behavior ([1]; dose 1.0 mg/kg oral): 122% | Anxiolytic effect in the anticonflict test (in words) [1]: increase in the frequency of water drinking behavior | LD50 at 3 days [2]: > 2000 mg/kg
